# Patent US20150299233A1, “COMPOSITIONS AND METHODS COMPRISING RHENIUM FOR THE TREATMENT OF CANCERS” (Massachusetts Institute of Technology, priority 2014, published 2015)
# Read-outs that look alike come from different tables or passages of the source.
# Assays:
# [1] = system: cisplatin-sensitive cells (A2780); conditions: Table 1; 72 h exposure; value taken from ref 4S; read-out: IC50 A2780 ovarian carcinoma; cited from earlier work
# [2] = system: NTERA-2; test: MTT cytotoxicity assay, NTERA-2 cells; assay type: cell-based, human; conditions: Table 1; 72 h exposure; ± standard deviation; read-out: IC50 NTERA-2 testis carcinoma
# [3] = system: PC-3 (prostate adenocarcinoma); test: MTT cytotoxicity assay, PC-3 cells; assay type: cell-based, human; conditions: Table 2; cisplatin-resistant cell line; 72 h exposure
# [4] = system: MCF-7 (breast adenocarcinoma); test: MTT cytotoxicity assay, MCF-7 cells; assay type: cell-based, human; conditions: Table 2; cisplatin-resistant cell line; 72 h exposure
# [5] = system: A549 cells; test: MTT cytotoxicity assay, A549 cells; assay type: cell-based, human
# Protocol: (§1) In vitro toxicity of the rhenium (v) oxo complexes, 1 and 2 towards a panel of human cell lines was determined using the colorimetic MTT [[3-(4,5-dimethylithiazol-2-yl)-2,5-diphenyltetrazolium bromide] assay.
# (§2) The in vitro effect of rhenium(V) oxo complexes 1 and 2 toward a panel of human cell lines was determined by the colorimetric MTT [3-(4,5-dimethylthiazol-2-yl)-2,5-diphenyltetrazolium bromide] assay. […] The IC50 values, or concentration required to induce 50% cell death, were derived from dose—response curves and are summarized in Table 1.
# (§3) Cells (2×10^3 cells/well) were seeded in a 96-well plate. […] 1 and 2 were prepared as 10 mM solutions in DMSO and diluted using media. The final concentration of DMSO in each well was 0.5%, and this amount was also present in the untreated control. After 72 h, the medium was removed, 200 μL of a 0.4 mg/mL solution of MTT in DMEM, RPMI, or McCoy's 5A was added, and the plate was incubated for an additional 1-2 h. The DMEM/MTT, RPMI/MTT, or McCoy's 5A/MTT mixture was aspirated, and 200 μL of DMSO was added to dissolve the resulting purple formazan crystals. The absorbance of the solution wells was read at 550 nm. Absorbance values were normalized to DMSO-containing control wells and plotted as the concentration of test compound versus % cell viability. IC50 values were interpolated from the resulting dose-dependent curves. The reported IC50 values are the average from at least three independent experiments, each of which consisted of six replicates per concentration level.
# [6] = system: cisplatin-sensitive cells (A2780); test: MTT cytotoxicity assay, A2780 cells; assay type: cell-based, human; conditions: Table A; average of three independent determinations; read-out: IC50 A2780 (ovarian)
# [7] = system: MRC-5; conditions: Table 1; 72 h exposure; value taken from ref 4S; read-out: IC50 MRC-5 lung fibroblast; cited from earlier work
# [8] = system: MRC-5; test: MTT cytotoxicity assay, MRC-5 normal lung fibroblasts; assay type: cell-based, human; conditions: Table A; average of three independent determinations; read-out: IC50 MRC5 (lung normal)
# Protocol: as §1, §2, §3
# [9] = system: cisplatin-resistant ovarian carcinoma cells (A2780CP70); test: MTT cytotoxicity assay, A2780CP70 cells; assay type: cell-based, human
# [10] = system: U2OS; conditions: Table 1; 72 h exposure; value taken from ref 4S; read-out: IC50 U2OS bone osteosarcoma; cited from earlier work
# [11] = system: U2OS; test: MTT cytotoxicity assay, U2OS cells; assay type: cell-based, human; conditions: Table A; average of three independent determinations; read-out: IC50 U2OS (bone)
# [12] = system: HT-29 (colorectal adenocarcinoma); test: MTT cytotoxicity assay, HT-29 cells; assay type: cell-based, human; conditions: Table 2; cisplatin-resistant cell line; 72 h exposure
# Protocol: Cytotoxicity MTT Assay. […] Cells (2×10^3 cells/well) were seeded in a 96-well plate. […] The final concentration of DMSO in each well was 0.5%, and this amount was also present in the untreated control. After 72 h, the medium was removed, 200 μL of a 0.4 mg/mL solution of MTT in DMEM, RPMI, or McCoy's 5A was added, and the plate was incubated for an additional 1-2 h. The DMEM/MTT, RPMI/MTT, or McCoy's 5A/MTT mixture was aspirated, and 200 μL of DMSO was added to dissolve the resulting purple formazan crystals. The absorbance of the solution wells was read at 550 nm. Absorbance values were normalized to DMSO-containing control wells and plotted as the concentration of test compound versus % cell viability. IC50 values were interpolated from the resulting dose-dependent curves. The reported IC50 values are the average from at least three independent experiments, each of which consisted of six replicates per concentration level.
# [13] = system: confluent A549 cells; test: MTT cytotoxicity assay, confluent A549 cells; assay type: cell-based, human; conditions: Table 2; confluent cells; 72 h exposure; read-out: IC50 A549 (confluent) lung carcinoma
# [14] = system: HeLa cervical adenocarcinoma cells; test: MTT cytotoxicity assay, HeLa cells; assay type: cell-based, human
# [15] = system: DU 145 (prostate carcinoma); test: MTT cytotoxicity assay, DU 145 cells; assay type: cell-based, human; conditions: Table 2; cisplatin-resistant cell line; 72 h exposure; read-out: IC50 DU 14S prostate carcinoma
# [16] = system: MDA-MB-231 (breast adenocarcinoma); test: MTT cytotoxicity assay, MDA-MB-231 cells; assay type: cell-based, human; conditions: Table 2; cisplatin-resistant cell line; 72 h exposure; read-out: IC50 MDA-M8-231 breast adenocarcinoma
# [17] = system: A549 cells; test: Intracellular ROS assay (DCFH-DA, flow cytometry); assay type: cell-based, human; conditions: 1, 2, shikonin 20 μM for 12 h; H2O2 1 mM for 1 h
# Protocol: Characterization of Necroptotic Features. Having established that necrosome formation is a determinant of 1 and 2 activity, additional studies were performed to understand the cascade of events leading from necrosome formation to cell death. Necrosomes generate abnormally high levels of mitochondrial ROS, leading to ATP depletion and eventual degradation of the mitochondrial membrane potential. With this fact in mind, intracellular ROS production was quantified by flow cytometry using 6-carboxy-2′,7′-dichlorodihydrofluorescein diacetate (DCFH-DA), a well-established ROS indicator.
# In FIG. 2: (A) Representative histograms displaying the green fluorescence emitted by DCFH-DA-stained A549 cells (i) and A549 cells treated with 1(20 μM for 12 h) (iii) or 1 (20 μM for 12 h) with nectrostatin-1 (60 μM for 12 h) (ii). (B) Representative histograms displaying the green fluorescence emitted by DCFH-DA-stained A549 cells (i) and A549 cells treated with 2 (20 μM for 12 h) (iii) or 2 (20 μM for 12 h) with nectrostatin-1 (60 μM for 12 h) (ii). (C) Representative histograms displaying the green fluorescence emitted by DCFH-DA-stained A549 cells (i) and A549 cells treated withH2O2 (1mM for 1 h) (iii). (D) Representative histograms displaying the green fluorescence emitted by DCFH-DA-stained A549 cells (i) and A549 cells treated with shikonin (20 μM for 12 h) (iii).
# Intracellular ROS Assay. Untreated and treated A549 cells (1.5×10^6 cells/well) grown in six-well plates were incubated with 6-carboxy-2′,7′-dichlorodihydrofluorescein diacetate (20 μM) for 30 min. The cells were then washed with PBS (1 mL x 3), harvested, and analyzed by using a FACSCalibur-HTS flow cytometer (BD Biosciences) (20 000 events per sample were acquired). The FL1 channel was used to assess intracellular ROS levels. Cell populations were analyzed using the FlowJo software (Tree Star).
Structure (SMILES),IC50 [1] [µM],IC50 [2] [µM],IC50 [3] [µM],IC50 [4] [µM],"IC50 ([5]; Table 1, 72 h exposure, ± standard deviation, read-out: IC50 A549 lung carcinoma) [µM]","IC50 ([5]; Table A, average of three independent determinations, read-out: IC50 A549 (lung)) [µM]",IC50 [6] [µM],IC50 [7] [µM],IC50 [8] [µM],"IC50 ([9]; Table 1, 72 h exposure, ± standard deviation, read-out: IC50 A2780CP70 ovarian carcinoma) [µM]","IC50 ([9]; Table A, average of three independent determinations, read-out: IC50 A280CP70 (ovarian)) [µM]",IC50 [10] [µM],IC50 [11] [µM],IC50 [12] [µM],IC50 [13] [µM],"IC50 ([14]; Table 1, 72 h exposure, ± standard deviation, read-out: IC50 HeLa cervical adenocarcinoma) [µM]","IC50 ([14]; Table A, average of three independent determinations, read-out: IC50 HeLa (cervical)) [µM]",IC50 [15] [µM],IC50 [16] [µM],intracellular ROS versus untreated control cells [17]
"N.N.[Cl][Pt][Cl] [cisplatin, reference compound]",0.7 ± 0.2,0.385 ± 0.049,10.2 ± 0.919,9.74 ± 0.537,3.23 ± 0.467,2.74 ± 0.006,1.41 ± 0.037,5.3 ± 0.6,11.1 ± 1.33,8.42 ± 0.205,8.42 ± 0.205,4.6 ± 0.6,4.6 ± 0.6,29.6 ± 1.33,9.42 ± 1.94,4.1 ± 0.113,4.1 ± 0.011,> 100,43.6 ± 7.07,
"OO [Compound H2O2, H2O2, reference compound]",,,,,,,,,,,,,,,,,,,,significantly higher levels of measurable ROS
